Tested on: SFV vector VA7-mCherry
Assay: Live microscopy of SFV infection in Pa02C pancreatic cancer cells
Assay type: cell-based, Semliki Forest virus
Conditions: 1 µM, low moi (0.01), 96 h

Which “effect on replication and spread of SFV” value does the source give for `CC1(C)CCC(c2ccc(Cl)cc2)=C(CN2CCN(c3ccc(C(=O)NS(=O)(=O)c4ccc(N[C@H](CCN5CCOCC5)CSc5ccccc5)c(S(=O)(=O)C(F)(F)F)c4)cc3)CC2)C1` [ABT-263] here?
Its value is “attenuated the replication and spread of the virus”.

— publication PMC5691623 (Viruses, 2017)
